Values quoted from earlier work, collected in patent US20040139488A1, “Compositions and methods for enhancing disease resistance in fish” (priority 2002, published 2004).

Experiments:
E. ictaluri = settings: synthesized, HPLC-purified peptide, in vitro
Aeromonas salmonicida = settings: synthesized, HPLC-purified peptide, in vitro

cecropin B: mature cecropin B from Hyalophora cecropia (SEQ ID NO:19), synthesized peptide purified by high-pressure liquid chromatography (KWKVFKKIEKMGRNIRNGIVKAGPAIAVLGEAKALG; listed as Hyalophora cecropia)
bactericidal activity against E. ictaluri (E. ictaluri): possess the predicted bactericidal activity | bactericidal activity against Aeromonas salmonicida (Aeromonas salmonicida): possess the predicted bactericidal activity
